Laboratory results from ChEMBL document CHEMBL3217607, “Discovery and structural modification of novel inhibitors of PTP1B inspired by the ACT fragment of scleritodermin A” (Medchemcomm, 2011).

Key:
[1] = target: Receptor-type tyrosine-protein phosphatase F (Homo sapiens, UniProt P10586); assay: Inhibition of LAR (unknown origin) using 3-O-Methylfluorescein phosphate as substrate preincubated for 3 mins followed by substrate addition
[2] = target: T1, Tyrosine-protein phosphatase non-receptor type 1 (Homo sapiens, UniProt P18031); assay: Inhibition of GST-tagged PTP1B (unknown origin) using pNPP as substrate measured for 2 mins by spectrophotometry
T1 sequence (P18031 whole entry): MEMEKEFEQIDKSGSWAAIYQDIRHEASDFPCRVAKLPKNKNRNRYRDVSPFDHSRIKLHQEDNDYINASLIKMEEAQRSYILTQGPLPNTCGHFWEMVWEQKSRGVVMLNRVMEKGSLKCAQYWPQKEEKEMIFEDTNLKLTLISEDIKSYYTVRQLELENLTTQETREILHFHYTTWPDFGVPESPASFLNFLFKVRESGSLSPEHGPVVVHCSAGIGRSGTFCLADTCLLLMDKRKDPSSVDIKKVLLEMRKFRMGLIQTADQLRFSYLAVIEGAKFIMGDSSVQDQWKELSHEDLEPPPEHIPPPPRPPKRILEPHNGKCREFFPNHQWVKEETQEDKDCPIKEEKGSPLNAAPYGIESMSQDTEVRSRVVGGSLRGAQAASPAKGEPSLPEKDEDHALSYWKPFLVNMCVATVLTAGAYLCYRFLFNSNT

[3] = target: T2, M-phase inducer phosphatase 2 (Homo sapiens, UniProt P30305); assay: Inhibition of CDC25B (unknown origin) using 3-O-Methylfluorescein phosphate as substrate preincubated for 3 mins followed by substrate addition
T2 sequence (P30305 whole entry): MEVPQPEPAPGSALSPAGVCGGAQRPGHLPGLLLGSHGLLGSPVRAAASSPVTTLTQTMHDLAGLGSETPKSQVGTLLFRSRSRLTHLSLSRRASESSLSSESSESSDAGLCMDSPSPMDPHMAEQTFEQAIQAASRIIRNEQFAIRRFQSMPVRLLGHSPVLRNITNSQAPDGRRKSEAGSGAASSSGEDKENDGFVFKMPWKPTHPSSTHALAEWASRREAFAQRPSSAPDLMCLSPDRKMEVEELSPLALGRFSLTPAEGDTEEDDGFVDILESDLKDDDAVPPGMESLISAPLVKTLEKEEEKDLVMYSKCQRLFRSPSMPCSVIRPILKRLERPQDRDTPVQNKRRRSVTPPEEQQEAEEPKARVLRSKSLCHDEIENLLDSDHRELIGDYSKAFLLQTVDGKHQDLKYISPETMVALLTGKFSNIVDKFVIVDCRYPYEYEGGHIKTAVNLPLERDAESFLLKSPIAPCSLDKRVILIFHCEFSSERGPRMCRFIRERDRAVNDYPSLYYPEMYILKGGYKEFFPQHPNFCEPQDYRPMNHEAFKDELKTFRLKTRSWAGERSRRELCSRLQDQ

[4] = target: T3, Tyrosine-protein phosphatase non-receptor type 11 (Homo sapiens, UniProt Q06124); assay: Inhibition of SHP2 (unknown origin) using 3-O-Methylfluorescein phosphate as substrate preincubated for 3 mins followed by substrate addition
T3 sequence (Q06124 whole entry): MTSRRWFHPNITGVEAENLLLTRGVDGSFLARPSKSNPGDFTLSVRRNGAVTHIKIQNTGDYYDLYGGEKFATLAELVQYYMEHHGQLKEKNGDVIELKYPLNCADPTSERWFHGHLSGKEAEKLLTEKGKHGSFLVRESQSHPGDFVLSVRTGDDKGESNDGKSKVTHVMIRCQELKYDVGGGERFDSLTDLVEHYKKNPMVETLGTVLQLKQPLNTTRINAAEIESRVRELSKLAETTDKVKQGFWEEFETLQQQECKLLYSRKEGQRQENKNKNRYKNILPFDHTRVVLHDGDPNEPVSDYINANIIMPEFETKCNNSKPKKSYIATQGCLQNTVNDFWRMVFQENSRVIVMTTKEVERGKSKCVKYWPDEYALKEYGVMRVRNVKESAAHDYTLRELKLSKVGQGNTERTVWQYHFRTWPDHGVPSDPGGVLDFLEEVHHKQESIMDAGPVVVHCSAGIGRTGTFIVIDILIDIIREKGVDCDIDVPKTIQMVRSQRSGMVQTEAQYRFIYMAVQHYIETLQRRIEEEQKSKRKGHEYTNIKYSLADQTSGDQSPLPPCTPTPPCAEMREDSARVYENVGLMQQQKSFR

[5] = target: Tyrosine-protein phosphatase non-receptor type 6 (Homo sapiens, UniProt P29350); assay: Inhibition of SHP1 (unknown origin) using 3-O-Methylfluorescein phosphate as substrate preincubated for 3 mins followed by substrate addition
Tyrosine-protein phosphatase non-receptor type 6, sequence (P29350 whole entry): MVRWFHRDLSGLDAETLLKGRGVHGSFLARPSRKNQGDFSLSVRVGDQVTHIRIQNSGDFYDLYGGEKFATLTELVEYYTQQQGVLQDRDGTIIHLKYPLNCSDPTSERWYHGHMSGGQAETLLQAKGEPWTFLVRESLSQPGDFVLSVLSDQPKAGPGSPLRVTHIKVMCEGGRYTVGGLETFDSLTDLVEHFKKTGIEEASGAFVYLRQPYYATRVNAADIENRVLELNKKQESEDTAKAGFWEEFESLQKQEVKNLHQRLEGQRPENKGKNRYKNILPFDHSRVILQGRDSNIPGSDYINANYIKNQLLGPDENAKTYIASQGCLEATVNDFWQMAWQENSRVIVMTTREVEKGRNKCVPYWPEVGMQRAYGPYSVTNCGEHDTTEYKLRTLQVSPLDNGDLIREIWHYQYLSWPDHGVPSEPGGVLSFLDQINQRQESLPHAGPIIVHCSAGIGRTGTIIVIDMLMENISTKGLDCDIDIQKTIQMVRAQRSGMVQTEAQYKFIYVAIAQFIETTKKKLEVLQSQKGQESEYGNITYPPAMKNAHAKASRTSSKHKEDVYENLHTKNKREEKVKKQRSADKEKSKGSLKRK

[6] = target: T4, Tyrosine-protein phosphatase non-receptor type 2 (Homo sapiens, UniProt P17706); assay: Inhibition of TCPTP (unknown origin)
T4 sequence (P17706 whole entry): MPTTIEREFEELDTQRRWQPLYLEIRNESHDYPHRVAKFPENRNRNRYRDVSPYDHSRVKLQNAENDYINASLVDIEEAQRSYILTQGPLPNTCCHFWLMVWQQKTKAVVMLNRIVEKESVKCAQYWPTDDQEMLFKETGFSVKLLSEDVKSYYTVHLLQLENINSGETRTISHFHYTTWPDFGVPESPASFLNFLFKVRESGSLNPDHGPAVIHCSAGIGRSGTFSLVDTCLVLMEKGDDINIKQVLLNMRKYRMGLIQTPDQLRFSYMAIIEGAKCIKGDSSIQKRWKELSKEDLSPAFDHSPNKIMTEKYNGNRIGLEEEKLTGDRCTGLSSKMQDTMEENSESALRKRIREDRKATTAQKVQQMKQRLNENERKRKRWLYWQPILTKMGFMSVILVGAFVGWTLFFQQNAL

Receptor-type tyrosine-protein phosphatase F, sequence (P10586 whole entry): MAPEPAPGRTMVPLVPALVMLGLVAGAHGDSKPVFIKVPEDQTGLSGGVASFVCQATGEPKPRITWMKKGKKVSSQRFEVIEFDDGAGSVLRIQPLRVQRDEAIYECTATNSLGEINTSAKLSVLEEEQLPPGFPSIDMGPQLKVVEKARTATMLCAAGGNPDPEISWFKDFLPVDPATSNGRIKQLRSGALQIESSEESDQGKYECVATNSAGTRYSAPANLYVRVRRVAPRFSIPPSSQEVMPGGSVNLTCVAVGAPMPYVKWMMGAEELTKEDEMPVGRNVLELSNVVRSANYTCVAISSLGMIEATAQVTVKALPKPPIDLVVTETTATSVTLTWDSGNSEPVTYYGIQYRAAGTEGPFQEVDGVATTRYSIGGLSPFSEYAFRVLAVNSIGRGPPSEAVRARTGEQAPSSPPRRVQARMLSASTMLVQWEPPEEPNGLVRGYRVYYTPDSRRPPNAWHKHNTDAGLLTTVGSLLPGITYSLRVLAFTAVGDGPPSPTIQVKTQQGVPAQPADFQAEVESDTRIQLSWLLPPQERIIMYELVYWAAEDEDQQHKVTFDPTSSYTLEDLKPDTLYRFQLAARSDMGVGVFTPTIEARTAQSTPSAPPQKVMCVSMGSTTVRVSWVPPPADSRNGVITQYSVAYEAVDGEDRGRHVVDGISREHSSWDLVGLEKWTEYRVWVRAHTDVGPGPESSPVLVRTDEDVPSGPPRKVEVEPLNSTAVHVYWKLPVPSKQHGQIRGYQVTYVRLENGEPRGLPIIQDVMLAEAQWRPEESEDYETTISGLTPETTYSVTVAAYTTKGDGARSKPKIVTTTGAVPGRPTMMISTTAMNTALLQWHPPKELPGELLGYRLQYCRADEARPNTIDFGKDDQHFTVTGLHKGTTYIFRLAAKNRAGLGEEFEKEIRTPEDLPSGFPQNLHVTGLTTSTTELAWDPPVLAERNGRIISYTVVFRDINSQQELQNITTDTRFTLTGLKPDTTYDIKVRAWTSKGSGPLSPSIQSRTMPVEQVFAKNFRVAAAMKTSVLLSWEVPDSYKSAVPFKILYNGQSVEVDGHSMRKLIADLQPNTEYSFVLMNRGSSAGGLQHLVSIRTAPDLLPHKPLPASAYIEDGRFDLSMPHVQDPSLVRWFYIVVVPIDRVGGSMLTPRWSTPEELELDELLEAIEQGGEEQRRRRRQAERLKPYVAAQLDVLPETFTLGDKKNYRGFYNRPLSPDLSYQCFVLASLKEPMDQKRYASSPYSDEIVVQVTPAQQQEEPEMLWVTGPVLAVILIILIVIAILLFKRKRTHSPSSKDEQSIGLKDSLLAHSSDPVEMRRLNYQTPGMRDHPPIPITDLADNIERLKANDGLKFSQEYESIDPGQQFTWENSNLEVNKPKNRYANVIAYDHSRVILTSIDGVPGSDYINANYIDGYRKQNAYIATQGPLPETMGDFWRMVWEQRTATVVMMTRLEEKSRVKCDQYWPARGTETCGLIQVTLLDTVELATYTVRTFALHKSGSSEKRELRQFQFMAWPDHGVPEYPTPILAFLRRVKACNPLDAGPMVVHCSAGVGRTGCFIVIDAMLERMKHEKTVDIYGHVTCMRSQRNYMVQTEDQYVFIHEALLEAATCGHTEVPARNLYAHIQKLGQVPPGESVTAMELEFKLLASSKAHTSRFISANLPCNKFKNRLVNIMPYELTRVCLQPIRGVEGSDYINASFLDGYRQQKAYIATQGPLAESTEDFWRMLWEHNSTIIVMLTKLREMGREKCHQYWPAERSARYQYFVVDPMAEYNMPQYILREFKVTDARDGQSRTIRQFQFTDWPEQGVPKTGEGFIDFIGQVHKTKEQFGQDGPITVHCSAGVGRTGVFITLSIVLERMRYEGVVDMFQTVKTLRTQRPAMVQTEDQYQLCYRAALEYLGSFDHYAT

SMILES	IC50 [1]	IC50 [2]	IC50 [3]	IC50 [4]	IC50 [5]	IC50 [6]
CCOC(=O)/C(C)=C\C(C)=C\c1csc([C@H](Cc2ccc(OCc3ccccc3)cc2)NC(=O)C2CCCCC2)n1	> 20 µM	9.32 µM	3.92 µM	> 20 µM	> 20 µM	15.6 µM
CCOC(=O)/C(C)=C\C(C)=C\c1csc([C@H](Cc2ccc(OCc3ccccc3)cc2)NC(=O)C2CC2)n1		19.9 µM				
CCOC(=O)/C(C)=C\C(C)=C\c1csc([C@H](Cc2ccc(OCc3ccccc3)cc2)NC(=O)C2CCCC2)n1		17.9 µM				
CCOC(=O)/C(C)=C\C(C)=C\c1csc([C@H](Cc2ccc(OCc3ccccc3)cc2)NC(=O)C(C)C)n1		16.1 µM				
CCOC(=O)/C(C)=C\C(C)=C\c1csc([C@H](Cc2ccc(OCc3ccccc3)cc2)NC(=O)c2ccco2)n1		18 µM				
CCOC(=O)/C(C)=C/C(C)=C/c1csc([C@H](Cc2ccc(OCc3ccccc3)cc2)NC(=O)C2CCCCC2)n1		19 µM				
CCOC(=O)/C(C)=C/C(C)=C\c1csc([C@H](Cc2ccc(OCc3ccccc3)cc2)NC(=O)C2CCCCC2)n1		23.9 µM				
CCOC(=O)/C(C)=C\C(C)=C/c1csc([C@H](Cc2ccc(OCc3ccccc3)cc2)NC(=O)C2CCCCC2)n1		13 µM				
CCOC(=O)C(C)CC(C)Cc1csc([C@H](Cc2ccc(OCc3ccccc3)cc2)NC(=O)C2CCCCC2)n1 (stereo partly drawn)		> 40 µM				
CCOC(=O)/C(C)=C/c1csc([C@H](Cc2ccc(OCc3ccccc3)cc2)NC(=O)C2CCCCC2)n1		> 40 µM				
CCOC(=O)/C(C)=C\c1csc([C@H](Cc2ccc(OCc3ccccc3)cc2)NC(=O)C2CCCCC2)n1		> 40 µM				
CCOC(=O)c1csc([C@H](Cc2ccc(OCc3ccccc3)cc2)NC(=O)C2CCCCC2)n1		> 40 µM				
C=CCOC(=O)N[C@@H](COC(=O)/C(C)=C\C(C)=C\c1csc([C@H](Cc2ccc(OCc3ccccc3)cc2)NC(=O)OC(C)(C)C)n1)C(=O)N1CCC[C@H]1C(=O)OC(C)(C)C		4.42 µM				3.95 µM
CCOC(=O)CNC(=O)/C(C)=C\C(C)=C\c1csc(C(Cc2ccc(OCc3ccccc3)cc2)NC(=O)OC(C)(C)C)n1 (single isomer, unassigned)		12.4 µM				
COC(=O)CCNC(=O)/C(C)=C\C(C)=C\c1csc(C(Cc2ccc(OCc3ccccc3)cc2)NC(=O)OC(C)(C)C)n1 (single isomer, unassigned)		15.9 µM				
CCOC(=O)CCCOC(=O)/C(C)=C\C(C)=C\c1csc(C(Cc2ccc(OCc3ccccc3)cc2)NC(=O)OC(C)(C)C)n1 (single isomer, unassigned)		12.5 µM				
CCOC(=O)CCCCOC(=O)/C(C)=C\C(C)=C\c1csc(C(Cc2ccc(OCc3ccccc3)cc2)NC(=O)OC(C)(C)C)n1 (single isomer, unassigned)		9.66 µM				

Results, then the compound that gave them:

IC50 [1]	IC50 [2]	IC50 [3]	IC50 [4]	IC50 [5]	IC50 [6]	SMILES
	8.92 µM					CCOC(=O)/C(C)=C\C(C)=C\c1csc([C@H](Cc2ccc(OCc3ccccc3)cc2)NC(=O)c2ccc(F)cc2)n1
	11.4 µM					CCCCC(=O)N[C@@H](Cc1ccc(OCc2ccccc2)cc1)c1nc(/C=C(C)/C=C(/C)C(=O)OCC)cs1
	> 36 µM					CCOC(=O)/C(C)=C\C(C)=C\c1csc([C@H](Cc2ccc(OCc3ccccc3)cc2)NC(=O)c2ccccc2)n1
	9.44 µM					CCOC(=O)/C(C)=C\C(C)=C\c1csc([C@H](Cc2ccc(OCc3ccccc3)cc2)NC(=O)c2cc3ccccc3s2)n1
	5.6 µM					CCOC(=O)COC(=O)/C(C)=C\C(C)=C\c1csc([C@H](Cc2ccc(OCc3ccccc3)cc2)NC(=O)[C@H](Cc2c[nH]c3ccccc23)NC(=O)OC(C)(C)C)n1
> 20 µM	1.6 µM	3.38 µM	> 20 µM	> 20 µM	4.53 µM	C/C(=C/C(C)=C/c1csc([C@H](Cc2ccc(OCc3ccccc3)cc2)NC(=O)[C@H](Cc2c[nH]c3ccccc23)NC(=O)OC(C)(C)C)n1)C(=O)OCC(=O)O
> 20 µM	2.08 µM	2.4 µM	> 20 µM	> 20 µM	8.84 µM	CCOC(=O)COC(=O)/C(C)=C\C(C)=C\c1csc([C@H](Cc2ccc(OCc3ccccc3)cc2)NC(=O)[C@H](Cc2c[nH]c3ccccc23)NC(C)=O)n1
> 20 µM	3.01 µM	5.41 µM	> 20 µM	> 20 µM	17.7 µM	CC(=O)N[C@@H](Cc1c[nH]c2ccccc12)C(=O)N[C@@H](Cc1ccc(OCc2ccccc2)cc1)c1nc(/C=C(C)/C=C(/C)C(=O)OCC(=O)O)cs1
> 20 µM	5.94 µM	2.83 µM	> 20 µM	> 20 µM	14 µM	CCOC(=O)COC(=O)/C(C)=C\C(C)=C\c1csc([C@H](Cc2ccc(OCc3ccccc3)cc2)NC(=O)Cc2c[nH]c3ccccc23)n1
> 20 µM	3.68 µM	4.88 µM	> 20 µM	> 20 µM	9.98 µM	C/C(=C/C(C)=C/c1csc([C@H](Cc2ccc(OCc3ccccc3)cc2)NC(=O)Cc2c[nH]c3ccccc23)n1)C(=O)OCC(=O)O
> 20 µM	5.43 µM	3.66 µM	> 20 µM	> 20 µM	12.8 µM	CCOC(=O)COC(=O)/C(C)=C\C(C)=C\c1csc([C@H](Cc2ccc(OCc3ccccc3)cc2)NC(=O)CCc2c[nH]c3ccccc23)n1
> 20 µM	2.32 µM	4.82 µM	19.1 µM	15 µM	8.72 µM	C/C(=C/C(C)=C/c1csc([C@H](Cc2ccc(OCc3ccccc3)cc2)NC(=O)CCc2c[nH]c3ccccc23)n1)C(=O)OCC(=O)O
> 20 µM	3.05 µM	2.55 µM	> 20 µM	> 20 µM	12.7 µM	CCOC(=O)COC(=O)/C(C)=C\C(C)=C\c1csc([C@H](Cc2ccc(OCc3ccccc3)cc2)NC(=O)CCCc2c[nH]c3ccccc23)n1
> 20 µM	2.45 µM	4.38 µM	> 20 µM	> 20 µM	11.1 µM	C/C(=C/C(C)=C/c1csc([C@H](Cc2ccc(OCc3ccccc3)cc2)NC(=O)CCCc2c[nH]c3ccccc23)n1)C(=O)OCC(=O)O
	7.1 µM					CCOC(=O)COC(=O)/C(C)=C\C(C)=C\c1csc(C(Cc2ccc(OCc3ccccc3)cc2)NC(=O)OC(C)(C)C)n1 (single isomer, unassigned)
